Marks after values point to notes of the source that are not given here.
Columns and labels:
Swiss Webster mice [1] = assay: Forced swim test (FST) in mice; assay type: in vivo; details: for antidepressant-type effect, reduction of immobility time: acute single I.P. administration, ketamine 1.5 mg/kg, melatonin 4 and 16 mg/kg, alone or combined, vs control group
Description: (§1) Male mice of the “Swiss Webster” strain between 25 and 35 grams were used. All mice were placed in polyethylene boxes (8 mice per box) at a controlled temperature between 21-22° C., in a room with the dark light cycle reversed (12:12 hours, with artificial light from 10 PM to 10 A.M). The behavior evaluations of the mice were carried out between 10 AM and 3 PM. These mice were fed Purina® for rodents and water ad libitum.
A single intraperitoneal administration (I.P.) was performed in a volume of […] of body weight, as the following treatment scheme: […]
The forced swim test consists of two sessions. In the first session (pre-test), the animals are placed in a glass cylinder with the following dimensions: 20 cm in diameter by 30 cm in height. The glass cylinder is filled with water to a height of 15 cm, at 23-25° C. temperature. The mice are kept in the cylinder for 15 minutes and are naturally forced to swim. The second session takes place 24 hours after the first session and 30 minutes after administering the different pharmacological treatments. The mice are placed in the glass cylinder for 5 minutes and videotaped for further analysis. The immobility of mice in FST is defined as depressive-type behavior and is manifested by a minimal amount of movements made by the animal to stay afloat. The antidepressant effect of a drug is reflected in this test as a decrease in immobility time and an increase in swimming compared to control animals (administered with the vehicle).

[2] = system: olfactory neuronal precursors; assay: Formation of spines in cloned olfactory neuronal precursors; assay type: cell-based, human; details: ketamine 10^−7 M
Description: (§2) Cloned neuronal precursors obtained by exfoliation of the nasal cavity of a healthy subject without neuropsychiatric disease at the time of sample collection were used. These were grown according to the following process: • a) Solution 1 containing the culture medium characterized by containing one or more amino acids, one or more mineral salts, one or more vitamins, one or more growth factors of natural origin, and one or more antibiotics; • b) Solution 2 containing one or more pH regulators, and one or more calcium chelating agents, whose function is to moisten the cells that will later be propagated; • c) Solution 3 containing one or more substances that break proteins and that allow the separation between the cells by dispersing them; • d) Solution 4 containing one or more substances that allow the cells to be fixed to a glass support; • e) Solution 5 of cryopreservation containing one or more cryoprotective agents of neuronal origin cells; • f) Solution 6 of differentiation containing the maintenance solution without natural origin growth factors, and a cyclic nucleotide compound that induces differentiation; • g) Solution 7 containing one or more identifiers of specific protein molecules of the neuronal structure such that they allow to distinguish the neuronal cells from patients with neuropsychiatric diseases from healthy subjects; and • h) Solution 8 containing one or more fluorescent and/or enzymatic markers to recognize the identifiers of solution 7; up to passage 5 at a temperature of 37° C. in a 5% CO^2 atmosphere. Cells in passage 5 were incubated with increasing concentrations of ketamine or melatonin or the combination of both according to the following administration schedules:
(§3) • i. Incubation of the neuronal precursors with a vehicle (0) and ketamine for 12 hours (1), 24 hours (2), 48 hours (3) and 72 hours (4). • ii. Incubation of neuronal precursors with 10^−7 molar ketamine for 48 hours followed by incubation for 6 hours with 10^−7 molar ketamine and melatonin concentrations ranging from 10^−11 molar (7), from 10^−9 molar (8), 10^−7 molar (9) and 10^−5 molar (10), this evaluation was incorporated in a treatment with vehicle (0), with 10^−7 molar melatonin (5) and 10^−7 molar ketamine (6). Said treatment is outlined in FIG. 1. • iii. […]
Once the cells were fixed, they were processed to stain them with specific markers that recognize the spines, which are made up of spinophilin and filamentous actin (FIG. 2A and 2B). […] The spines were counted in 10 fields chosen at random and normalized between the total cells number present in each field (Table 1). […]

[3] = system: olfactory neuronal precursors; assay: Cell cluster formation of olfactory neuronal precursors; assay type: cell-based, human
Description: as §2, §3

Swiss Webster mice [4] = assay: Open field test (OFT) in mice; assay type: in vivo
Description: as §1
In order to discard nonspecific actions of any of the treatments on locomotor activity, all the treatments studied in the TST and in the FST were analyzed in the OFT. Motor activity was measured in an apparatus formed by an opaque plexiglass box (40×30×20 cm), divided into 12 equal squares ([…]). The animal was placed in a corner of the cage and its behavior was videotaped for a period of 5 minutes. An observer, who was blinded to drug treatments, recorded the total number of times the animal crossed a square during the test. A count was considered when the animal fully crossed from one plaza to the next. Any change in the number of counts is considered as an alteration in locomotor activity. The test box was carefully cleaned after each session. To avoid changes in the behavior of the animals after the first experiment, the mice were used only once per test type.
The following groups of mice were treated under a single administration schedule: with a vehicle (26), a sub-effective dose of ketamine 1.5 mg/Kg (27), 3 mg/Kg (28), 10 mg/Kg (29), 20 mg/Kg (30), 30 mg/Kg (31), plus no effective dose of melatonin and 30 minutes later they were subjected to TST.
Under the same single administration scheme; (24, 7 and 0.5 h) before starting the trial, two other independent groups were administered with melatonin 4 mg/kg (33) and 16 mg/kg (34) plus no effective dose of ketamine, with their respective control (32). In other groups, melatonin 4 mg/kg +ketamine 1.5 mg/kg (36) and melatonin 16 mg/kg+ketamine 1.5 mg/kg (37) were administered, with their respective control (35).
The following groups of mice were treated under a triple administration scheme: with a vehicle (38), three administrations of melatonin 4 mg/Kg (39), three administrations of melatonin 16 mg/Kg (40), three administrations of ketamine 1.5 mg/Kg (41), three administrations of melatonin 4 mg/Kg+one administration of ketamine 1.5 mg/Kg (42) and three administrations of melatonin 16 mg/Kg+one administration of ketamine 1.5 mg/Kg (43) and 30 minutes later they were subjected to TST.
Evaluating the effect of melatonin in combination with ketamine on the ambulatory activity of mice in the open field test (OFT) all results are expressed as the mean±SEM of 8-12 animals. Comparisons were made using a one-way ANOVA analysis, followed by the Bonferroni test: * p<0.05, ** p<0.01, *** p<0.001.

Swiss Webster mice [5] = assay: Tail suspension test (TST) in mice; assay type: in vivo; details: N 8
[6] = single administration, ketamine 1.5 mg/kg (group 27)
[7] = single administration, ketamine 3 mg/kg (group 28)
[8] = single administration, ketamine 10 mg/kg (group 29)
[9] = single administration, ketamine 20 mg/kg (group 30)
[10] = single administration, ketamine 30 mg/kg (group 31)
[11] = triple administration, ketamine 1.5 mg/kg (group 41)
[12] = single administration, melatonin 4 mg/kg (group 33)
[13] = single administration, melatonin 16 mg/kg (group 34)
[14] = triple administration, melatonin 4 mg/kg (group 39)
[15] = triple administration, melatonin 16 mg/kg (group 40)

Work on CNCCC(Oc1ccc(C(F)(F)F)cc1)c1ccccc1 (centres unmarked) [Fluoxetine, fluoxetine] yielded an Immobility time (Swiss Webster mice [1]; fluoxetine 5 mg/kg I.P. (group 19)) of 49.76 ± 4.65 s and an Immobility time (Swiss Webster mice [1]; fluoxetine 10 mg/kg I.P. (group 20)) of 35.25 ± 3.88 s.
CNC1(c2ccccc2Cl)CCCCC1=O (centres unmarked) [Ketamine, 2-(2-chlorophenyl)-2-(methylamino) cyclohexanone] gave a Spines ([2]; incubation 12 h (group 1)) of 10.25 ± 1.89%, a Spines ([2]; incubation 24 h (group 2)) of 22.65 ± 2.16% and a Spines ([2]; incubation 48 h (group 3)) of 45.31 ± 4.26%. For the same compound, the Spines ([2]; incubation 72 h (group 4)) was 45.31 ± 3.88%, the cell cluster ([3]; ketamine 10^−7 M pre-treatment 48 h, then vehicle (group 6)) was 7.12 ± 0.92% and the cell cluster ([3]; two vehicle administrations + one administration of ketamine 10^−7 M (group 13)) was 3.1 ± 1.0%. For the same compound, the “antidepressant-type effect, reduction of immobility time” value (Swiss Webster mice [1]) was “ineffective”, the “ambulatory activity in OFT” value (Swiss Webster mice [4]; highest doses of ketamine (10 30 mg/kg), did not reach statistical significance, F(3,31)=2.99, p=0.047) was “modified ambulatory activity” and the “ambulatory activity in OFT” value (Swiss Webster mice [4]; ketamine 1.5, 3.0, 10.0 and 20.0 mg/kg, F(2,23)=0.545, p=0.589) was “did not produce changes in the ambulatory activity”. For the same compound, the “Count number/5 min” value (Swiss Webster mice [4]; [6]) was 40.12 ± 3.23, the “Stop number/5 min” value (Swiss Webster mice [4]; [6]) was 28.62 ± 3.15 and the “Count number/5 min” value (Swiss Webster mice [4]; [7]) was 45.25 ± 4.29. For the same compound, the “Stop number/5 min” value (Swiss Webster mice [4]; [7]) was 28.25 ± 2.66, the “Count number/5 min” value (Swiss Webster mice [4]; [8]) was 56.62 ± 4.36** and the “Stop number/5 min” value (Swiss Webster mice [4]; [8]) was 45.25 ± 2.85**. The “Count number/5 min” value (Swiss Webster mice [4]; [9]) was 56.00 ± 3.62**, the “Stop number/5 min” value (Swiss Webster mice [4]; [9]) was 45.50 ± 3.70 and the “Count number/5 min” value (Swiss Webster mice [4]; [10]) was 60.12 ± 1.60***. For the same compound, the “Stop number/5 min” value (Swiss Webster mice [4]; [10]) was 45.37 ± 1.71, the “Count number/5 min” value (Swiss Webster mice [4]; [11]) was 41.400 ± 3.97 and the “Stop number/5 min” value (Swiss Webster mice [4]; [11]) was 28.000 ± 2.53. The “Count Number/5 min ± mean standard error” value (Swiss Webster mice [5]; ketamine 1.5 mg/kg) was 40.12 ± 3.23, the “Count Number/5 min ± mean standard error” value (Swiss Webster mice [5]; ketamine 3 mg/kg) was 45.25 ± 4.29 and the “Count Number/5 min ± mean standard error” value (Swiss Webster mice [5]; ketamine 10 mg/kg) was 56.34 ± 4.36.
For COc1ccc2[nH]cc(CCNC(C)=O)c2c1 [Melatonin, N-[2-(5-methoxy-1H-indol-3-yl)ethyl] acetamide], the cell cluster ([3]; triple administration: three administrations of melatonin 10^−7 M (group 12)) was 2.9 ± 0.9%, the cell cluster ([3]; vehicle pre-treatment, then melatonin 10^−7 M (group 5)) was 7.61 ± 0.59% and the “antidepressant-type effect, reduction of immobility time” value (Swiss Webster mice [1]) was “ineffective”. The Immobility time (Swiss Webster mice [1]; melatonin 4 mg/kg I.P. (group 21)) was 41.21 ± 7.29 s, the Immobility time (Swiss Webster mice [1]; melatonin 16 mg/kg I.P. (group 22)) was 17.38 ± 2.51 s and the “Count number/5 min” value (Swiss Webster mice [4]; [12]) was 41.12 ± 2.48. For the same compound, the “Stop number/5 min” value (Swiss Webster mice [4]; [12]) was 25.37 ± 2.18, the “Count number/5 min” value (Swiss Webster mice [4]; [13]) was 38.50 ± 3.74 and the “Stop number/5 min” value (Swiss Webster mice [4]; [13]) was 25.12 ± 2.36. For the same compound, the “Count number/5 min” value (Swiss Webster mice [4]; [14]) was 47.200 ± 5.20, the “Stop number/5 min” value (Swiss Webster mice [4]; [14]) was 29.111 ± 2.16 and the “Count number/5 min” value (Swiss Webster mice [4]; [15]) was 42.625 ± 5.97. The “Stop number/5 min” value (Swiss Webster mice [4]; [15]) was 26.375 ± 4.60, the “Count Number/5 min ± mean standard error” value (Swiss Webster mice [5]; melatonin 4 mg/kg) was 41.125 ± 2.489 and the “Count Number/5 min ± mean standard error” value (Swiss Webster mice [5]; melatonin 16 mg/kg) was 38.500 ± 3.746.
